For orientation: MIC means the lowest concentration that inhibits growth of the organism.

Assay [1] has as its system Escherichia coli ATCC 25922. Kind of assay: Minimal Inhibitory Concentration (MIC) broth dilution assay. The conditions noted are these: ATCC25922, 20 h, read-out: MIC Escherichia coli ATCC 25922. Format: cell-based. The protocol:
(§1) The antibacterial activity of the compounds of the present invention was evaluated against the commonly used quality control strain Escherichia coli ATCC 25922 and the rifampin-resistant mutant strain Klebsiella pneumonia ATCC 43816. Both were originally derived from human clinical samples and are available from ATCC (American Type Culture Collection). The in vitro potency of compounds to inhibit Escherichia coli (ATCC 25922) and Klebsiella pneumonia (ATCC 43816) growth was assessed by the MIC (Minimal Inhibitory Concentration) broth dilution method. Specifically compound dilutions were prepared from 10 mM DMSO stock solutions as follows: i) serial 2-fold dilution in 20 μL DMSO were prepared in a master plate (Greiner, Cat No: 651201), ii) 180 μL sterile distilled water was added to each aliquot and iii) 10 μL diluted compounds were transferred into a new assay plate (Costar, 3599).
(§2) Vials of each test microorganisms were maintained frozen in the vapor phase of a liquid nitrogen freezer. Single-use frozen vials of the two strains Escherichia coli ATCC 25922 (KWIKSTIK, 0335K) and Klebsiella pneumonia ATCC 43816, with predetermined CFU/mL, were taken out from the freezer, thawed at room temperature, and diluted in Cation-Adjusted Mueller Hinton Broth (CAMHB) to achieve a final inoculum of 5×10^5 CFU/mL. 90 μL bacteria containing broth was dispensed to the assay plate containing the pre-dispensed compound dilutions and mixed by pipetting 5 times.
(§3) Then the assay plates were incubated for 20 hours at 35° C. in ambient air. Following incubation, the MIC ([…]), the lowest concentration of drug that inhibits visible growth of the microorganism was read with the help of a magnification mirror and recorded.
In general terms: Dilution methods test growth across graded concentrations, often in twofold steps.

Assay [2] deals with Klebsiella pneumonia ATCC 43816. The assay is described as above. Format: cell-based. As to conditions: Klebsiella pneumoniae, ATCC43816, 20 h, read-out: MIC Klebsiella pneumoniae ATCC43816. The protocol: as §1, §2, §3

Each structure is given as a SMILES string. Converted amounts (≈) assume the structure as drawn.

Regarding `NCCCNCc1ccc(C(=O)Nc2ccc(S(=O)(=O)N3CCN(c4cc(C(F)(F)F)nc(N)n4)CC3)cc2)cc1` [Example 006, 4-[(3-Aminopropylamino)methyl]-N-[4-[4-[2-amino-6-(trifluoromethyl)pyrimidin-4-yl]piperazin-1-yl]sulfonylphenyl]benzamide], the figures for the MIC in assay [1] and in assay [2] were 3.7 µg/mL (≈ 6.24 µM) and 15 µg/mL (≈ 25.3 µM), respectively.
For `NCCCNCc1ccc(C(=O)Nc2ccc(S(=O)(=O)N3CCN(c4cc(Br)cc(Cl)n4)CC3)cc2)cc1` [Example 007, 4-[(3-Aminopropylamino)methyl]-N-[4-[4-(4-bromo-6-chloro-2-pyridyl)piperazin-1-yl]sulfonylphenyl]benzamide], in that order: 0.97 µg/mL (≈ 1.56 µM) and 0.97 µg/mL (≈ 1.56 µM).
In the case of `NCCCNCc1ccc(C(=O)Nc2ccc(S(=O)(=O)N3CCN(c4cc(C(F)(F)F)cc(OC5CC5)n4)CC3)cc2)cc1` [Example 009, 4-[(3-Aminopropylamino)methyl]-N-[4-[4-[6-(cyclopropoxy)-4-(trifluoromethyl)-2-pyridyl]piperazin-1-yl]sulfonylphenyl]benzamide], the MIC in assay [1] stood at 5.4 µg/mL (≈ 8.53 µM); in assay [2], 11 µg/mL (≈ 17.4 µM).
`CCOc1cc(C(F)(F)F)cc(N2CCN(S(=O)(=O)c3ccc(NC(=O)c4ccc(CNCCCN)cc4)cc3)CC2)n1` [Example 010, 4-[(3-Aminopropylamino)methyl]-N-[4-[4-[6-ethoxy-4-(trifluoromethyl)-2-pyridyl]piperazin-1-yl]sulfonylphenyl]benzamide]: the figures for the MIC in assay [1] and in assay [2] were 5.3 µg/mL (≈ 8.54 µM) and 11 µg/mL (≈ 17.7 µM), respectively.
With `CCc1cc(C(F)(F)F)cc(N2CCN(S(=O)(=O)c3ccc(NC(=O)c4ccc(CNCCCN)cc4)cc3)CC2)n1` [Example 011, 4-[(3-Aminopropylamino)methyl]-N-[4-[4-[6-ethyl-4-(trifluoromethyl)-2-pyridyl]piperazin-1-yl]sulfonylphenyl]benzamide], the MIC is 3.8 µg/mL (≈ 6.28 µM) in assay [1] and 7.6 µg/mL (≈ 12.6 µM) in assay [2].
For the molecule `NCCCNCCc1ccc(C(=O)Nc2ccc(S(=O)(=O)N3CCN(c4cc(Cl)c(Cl)cn4)CC3)cc2)cc1` [Example 014, 4-[2-(3-Aminopropylamino)ethyl]-N-[4-[4-(4,5-dichloro-2-pyridyl)piperazin-1-yl]sulfonylphenyl]benzamide], the MIC in assay [1] is 15 µg/mL (≈ 25.4 µM); in assay [2], 30 µg/mL (≈ 50.7 µM).
Turning to `N#Cc1cc(N2CCN(S(=O)(=O)c3ccc(NC(=O)c4ccc(CCNCCCN)cc4)cc3)CC2)nc(C(F)(F)F)c1` [Example 015, 4-[2-(3-Aminopropylamino)ethyl]-N-[4-[4-[4-cyano-6-(trifluoromethyl)-2-pyridyl]piperazin-1-yl]sulfonylphenyl]benzamide], the results for the MIC in assay [1] and in assay [2] were 1.9 µg/mL (≈ 3.09 µM) and 3.8 µg/mL (≈ 6.17 µM), respectively.
In the same order, the values of `N#Cc1cc(C(F)(F)F)cc(N2CCN(S(=O)(=O)c3ccc(NC(=O)c4ccc(CCNCCCN)cc4)cc3)CC2)n1` [Example 016, 4-[2-(3-Aminopropylamino)ethyl]-N-[4-[4-[6-cyano-4-(trifluoromethyl)-2-pyridyl]piperazin-1-yl]sulfonylphenyl]benzamide] are 1.9 µg/mL (≈ 3.09 µM) and 3.8 µg/mL (≈ 6.17 µM).
For `CC(F)(F)c1cc(Cl)nc(N2CCN(S(=O)(=O)c3ccc(NC(=O)c4ccc(CCNCCCN)cc4)cc3)CC2)c1` [Example 017, 4-[2-(3-Aminopropylamino)ethyl]-N-[4-[4-[6-chloro-4-(1,1-difluoroethyl)-2-pyridyl]piperazin-1-yl]sulfonylphenyl]benzamide], in that order: 0.97 µg/mL (≈ 1.56 µM) and 0.97 µg/mL (≈ 1.56 µM).
In the same order, the values of `Cc1cc(C(F)(F)F)cc(N2CCN(S(=O)(=O)c3ccc(NC(=O)c4cccc(CNCCCN)c4)cc3)CC2)n1` [Example 018, 3-[(3-Aminopropylamino)methyl]-N-[4-[4-[6-methyl-4-(trifluoromethyl)-2-pyridyl]piperazin-1-yl]sulfonylphenyl]benzamide] are 0.64 µg/mL (≈ 1.08 µM) and 2.6 µg/mL (≈ 4.4 µM).
Turning to `COC(=O)c1cc(Cl)nc(N2CCN(S(=O)(=O)c3ccc(NC(=O)c4cccc(CNCCCN)c4)cc3)CC2)c1` [Example 019, Methyl 2-[4-[4-[[3-[(3-aminopropylamino)methyl]benzoyl]amino]phenyl]sulfonylpiperazin-1-yl]-6-chloro-pyridine-4-carboxylate], the MIC in assay [1] is 2.6 µg/mL (≈ 4.33 µM); in assay [2], 5.2 µg/mL (≈ 8.65 µM).
In the same order, the values of `CC1CN(c2cc(C(F)(F)F)cc(Cl)n2)CCN1S(=O)(=O)c1ccc(NC(=O)c2cccc(CNCCCN)c2)cc1` (centres unmarked) [Example 021, 3-[(3-Aminopropylamino)methyl]-N-[4-[4-[6-chloro-4-(trifluoromethyl)-2-pyridyl]-2-methyl-piperazin-1-yl]sulfonylphenyl]benzamide] are 3.9 µg/mL (≈ 6.24 µM) and 7.8 µg/mL (≈ 12.5 µM).
On to `CC1CN(S(=O)(=O)c2ccc(NC(=O)c3cccc(CNCCCN)c3)cc2)CCN1c1cc(C(F)(F)F)cc(Cl)n1` (centres unmarked) [Example 022, 3-[(3-Aminopropylamino)methyl]-N-[4-[4-[6-chloro-4-(trifluoromethyl)-2-pyridyl]-3-methyl-piperazin-1-yl]sulfonylphenyl]benzamide], for which the MIC in assay [1] and in assay [2] was 3.9 µg/mL (≈ 6.24 µM) in each case.
With `NCCCNCc1cccc(C(=O)Nc2ccc(S(=O)(=O)N3CCN(c4cc(C(F)(F)F)cc(Cl)n4)C4CCC43)cc2)c1` (centres unmarked) [Example 023, 3-[(3-Aminopropylamino)methyl]-N-[4-[[5-[6-chloro-4-(trifluoromethyl)-2-pyridyl]-2,5-diazabicyclo[4.2.0]octan-2-yl]sulfonyl]phenyl]benzamide], the MIC in assay [1] and in assay [2] was 4.2 µg/mL (≈ 6.59 µM) each time.
Consider `NCCCNCc1cccc(C(=O)Nc2ccc(S(=O)(=O)N3CCN(c4cc(C(F)(F)F)cc(Cl)n4)CC3)cc2)c1` [Example 024, 3-[(3-Aminopropylamino)methyl]-N-[4-[4-[6-chloro-4-(trifluoromethyl)-2-pyridyl]piperazin-1-yl]sulfonylphenyl]benzamide], for which the results for the MIC in assay [1] and in assay [2] were 0.48 µg/mL (≈ 0.785 µM) and 0.96 µg/mL (≈ 1.57 µM), respectively.
In the same order, the values of `N#CN=S(=O)(c1ccc(NC(=O)c2cccc(CCNCCCN)c2)cc1)N1CCN(c2cc(C(F)(F)F)cc(Cl)n2)CC1` (stereo not drawn) [Example 025, 3-[2-(3-Aminopropylamino)ethyl]-N-[4-[S-[4-[6-chloro-4-(trifluoromethyl)-2-pyridyl]piperazin-1-yl]-N-cyano-sulfonimidoyl]phenyl]benzamide] are 1.3 µg/mL (≈ 2 µM) and 5.1 µg/mL (≈ 7.86 µM).
On to `CN=S(=O)(c1ccc(NC(=O)c2cccc(CNCCCN)c2)cc1)N1CCN(c2cc(C(F)(F)F)cc(Cl)n2)CC1` (stereo not drawn) [Example 026, 3-[(3-aminopropylamino)methyl]-N-[4-[S-[4-[6-chloro-4-(trifluoromethyl)-2-pyridyl]piperazin-1-yl]-N-methyl-sulfonimidoyl]phenyl]benzamide], for which the results for the MIC in assay [1] and in assay [2] were 3.9 µg/mL (≈ 6.25 µM) and 7.8 µg/mL (≈ 12.5 µM), respectively.
For `COc1cc(NC(=O)c2cccc(CNCCCN)c2)ccc1S(=O)(=O)N1CCN(c2cc(C(F)(F)F)cc(Cl)n2)CC1` [Example 027, 3-[(3-Aminopropylamino)methyl]-N-[4-[4-[6-chloro-4-(trifluoromethyl)-2-pyridyl]piperazin-1-yl]sulfonyl-3-methoxy-phenyl]benzamide], in that order: 4 µg/mL (≈ 6.24 µM) and 4 µg/mL (≈ 6.24 µM).
In the same order, the values of `NCCCNCc1cccc(C(=O)Nc2ccc(S(=O)(=O)N3CCN(c4cc(C(F)(F)F)cc(Cl)n4)CC3)c(O)c2)c1` [Example 028, 3-[(3-Aminopropylamino)methyl]-N-[4-[4-[6-chloro-4-(trifluoromethyl)-2-pyridyl]piperazin-1-yl]sulfonyl-3-hydroxy-phenyl]benzamide] are 4.6 µg/mL (≈ 7.34 µM) and 9.3 µg/mL (≈ 14.8 µM).
As to `NCCCNCc1ccc(C(=O)Nc2ccc(S(=O)(=O)N3CCN(c4cc(C(F)(F)F)cc(Cl)n4)CC3)cn2)cc1` [Example 029, 4-[(3-Aminopropylamino)methyl]-N-[5-[4-[6-chloro-4-(trifluoromethyl)-2-pyridyl]piperazin-1-yl]sulfonyl-2-pyridyl]benzamide], the MIC was 1.9 µg/mL (≈ 3.1 µM) in assay [1] and 3.8 µg/mL (≈ 6.21 µM) in assay [2].
For `COc1cc(S(=O)(=O)N2CCN(c3cc(C(F)(F)F)cc(Cl)n3)CC2)ccc1NC(=O)c1cccc(CNCCCN)c1` [Example 030, 3-[(3-Aminopropylamino)methyl]-N-[4-[4-[6-chloro-4-(trifluoromethyl)-2-pyridyl]piperazin-1-yl]sulfonyl-2-methoxy-phenyl]benzamide], in that order: 4 µg/mL (≈ 6.24 µM) and 8 µg/mL (≈ 12.5 µM).
For `NCCCNCc1cccc(C(=O)Nc2ccc(S(=O)(=O)N3CCN(c4cc(C(F)(F)F)cc(Cl)n4)CC3)cc2O)c1` [Example 031, 3-[(3-Aminopropylamino)methyl]-N-[4-[4-[6-chloro-4-(trifluoromethyl)-2-pyridyl]piperazin-1-yl]sulfonyl-2-hydroxy-phenyl]benzamide], in that order: 3.9 µg/mL (≈ 6.22 µM) and 3.9 µg/mL (≈ 6.22 µM).

The values are drawn from US20260217672A1, “BENZAMIDE COMPOUNDS FOR TREATMENT OF BACTERIAL INFECTIONS” (Hoffmann-La Roche Inc., priority 2022, published 2026).
